These results are taken from patent publication US20130023532A1, “INDAZOLYL-PYRIMIDINES AS KINASE INHIBITORS” (priority 2010, published 2013).

This experiment has as its target T1, RIPK2 (Homo sapiens, UniProt O43353).
T1 construct: Full length FLAG His tagged RIPK2 was purified from a Baculovirus expression system; FLAG (N); 6His (N); made in house; host or cells: Spodoptera frugiperda (Sf9) insect cells, baculovirus
The experiment in a line: Fluorescent polarization based binding assay at the ATP binding pocket of RIPK2. The conditions noted are these: FP competition with fluorescently labeled ATP competitive ligand (5 nM); full length FLAG His tagged RIPK2; mean of a minimum of 2 experiments; read-out: mean pIC50 (converted). The source says:
A fluorescent polarization based binding assay was developed to quantitate interaction of novel test compounds at the ATP binding pocket of RIPK2, by competition with a fluorescently labeled ATP competitive ligand. Full length FLAG His tagged RIPK2 was purified from a Baculovirus expression system and was used at a final assay concentration of twice the KDapparent. A fluorescent labeled ligand (5-({[2-({[3-({4-[(5-hydroxy-2-methylphenyl)amino]-2-pyrimidinyl}amino)phenyl]carbonyl}amino)ethyl]amino}carbonyl)-2-(6-hydroxy-3-oxo-3H-xanthen-9-yl)benzoic acid, prepared as described below) was used at a final assay concentration of 5 nM. Both the enzyme and ligand were prepared in solutions in 50 mM HEPES pH7.5, 150 mM NaCl, 10 mM MgCl2, 1 mM DTT, and 1 mM CHAPS. Test compounds were prepared in 100% DMSO and 100 nL was dispensed to individual wells of a multiwell plate. Next, 5 ul RIPK2 was added to the test compounds at twice the final assay concentration, and incubated at room temperature for 10 minutes. […] Finally, samples were read on an instrument capable of measuring fluorescent polarization. Test compound inhibition was expressed as percent (%) inhibition of internal assay controls.
For concentration response experiments, normalized data were fit and pIC50 s determined using conventional techniques. […]

Counter-ions that a name gives are not always drawn.

T1 sequence (O43353 whole entry): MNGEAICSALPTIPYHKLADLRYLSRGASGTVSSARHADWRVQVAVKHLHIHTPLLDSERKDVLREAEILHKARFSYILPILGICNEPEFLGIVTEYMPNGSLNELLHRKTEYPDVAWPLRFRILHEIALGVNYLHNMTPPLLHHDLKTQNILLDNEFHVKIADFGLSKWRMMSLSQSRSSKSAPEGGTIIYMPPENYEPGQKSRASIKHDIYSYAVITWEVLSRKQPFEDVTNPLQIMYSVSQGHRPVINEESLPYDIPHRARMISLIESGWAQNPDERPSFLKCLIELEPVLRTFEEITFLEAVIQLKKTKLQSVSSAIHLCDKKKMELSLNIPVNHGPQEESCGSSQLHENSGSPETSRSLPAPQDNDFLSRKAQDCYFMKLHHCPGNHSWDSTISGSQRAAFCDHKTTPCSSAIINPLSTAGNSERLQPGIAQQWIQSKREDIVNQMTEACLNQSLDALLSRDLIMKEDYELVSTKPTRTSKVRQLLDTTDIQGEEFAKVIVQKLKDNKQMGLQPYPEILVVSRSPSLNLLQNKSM

Consider `COc1ccc2[nH]nc(Nc3ccnc(Nc4cc(OC)c(OC)c(OC)c4)n3)c2c1` [Example 12, N^4-[5-(methyloxy)-1H-indazol-3-yl]-N^2-[3,4,5-tris(methyloxy)phenyl]-2,4-pyrimidinediamine], for which the IC50 was 7.94 nM.

Regarding `COc1ccc2[nH]nc(Nc3ccnc(Nc4ccc(F)c(S(C)(=O)=O)c4)n3)c2c1` [Example 27, N^2-[4-fluoro-3-(methylsulfonyl)phenyl]-N^4-[5-(methyloxy)-1H-indazol-3-yl]-2,4-pyrimidinediamine trifluoroacetate], the IC50 is 50.1 nM.
